What all share (format): cell-based
The target of assay [1] is human α1H T-type channels (Homo sapiens, UniProt O95180). Briefly: T-type calcium channel block, whole cell patch clamp, α1H. Conditions: HEK cells stably expressing human α1H; mainly non-inactivated protocol; values above 10,000 nM represented as 10000. Summed up:
(§1)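 Read-out: current block in whole-cell patch clamp of HEK 293 cells stably expressing human α1G or α1H subunits. Compounds were perfused locally in external solution (0.1-0.01% DMSO) under resting and inactivating voltage protocols.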
In general terms: Patch clamp records ionic current or voltage across a cell membrane.

Assay [2] deals with N-type calcium channel subunits (α1B, α2δ, and β3a) (Homo sapiens, UniProt Q00975). Briefly: Block of Cav2.2 channel, whole cell voltage clamp, manual and PatchXpress. Conditions: Table 5; table follows Assay Example 3 (whole cell voltage clamp / PatchXpress); assay not given. In outline:
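Percent block taken as current amplitude ratio with versus without compound, applied in rising doses; IC50 fitted where one cell received multiple doses. Protocol: 50 ms pulses to +20 mV at 0.067 Hz from […] or −90 mV holding; P/n leak subtraction, no junction-potential correction; manual and PatchXpress recordings.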

Assay [3] deals with human α1G T-type channels (Homo sapiens, UniProt O43497). Briefly: T-type calcium channel block, whole cell patch clamp, α1G. Conditions: HEK cells stably expressing human α1G; mainly non-inactivated protocol; values above 10,000 nM represented as 10000. Summed up:
as §1

human α1H T-type channels, sequence (O95180 whole entry, the tested form may be a part): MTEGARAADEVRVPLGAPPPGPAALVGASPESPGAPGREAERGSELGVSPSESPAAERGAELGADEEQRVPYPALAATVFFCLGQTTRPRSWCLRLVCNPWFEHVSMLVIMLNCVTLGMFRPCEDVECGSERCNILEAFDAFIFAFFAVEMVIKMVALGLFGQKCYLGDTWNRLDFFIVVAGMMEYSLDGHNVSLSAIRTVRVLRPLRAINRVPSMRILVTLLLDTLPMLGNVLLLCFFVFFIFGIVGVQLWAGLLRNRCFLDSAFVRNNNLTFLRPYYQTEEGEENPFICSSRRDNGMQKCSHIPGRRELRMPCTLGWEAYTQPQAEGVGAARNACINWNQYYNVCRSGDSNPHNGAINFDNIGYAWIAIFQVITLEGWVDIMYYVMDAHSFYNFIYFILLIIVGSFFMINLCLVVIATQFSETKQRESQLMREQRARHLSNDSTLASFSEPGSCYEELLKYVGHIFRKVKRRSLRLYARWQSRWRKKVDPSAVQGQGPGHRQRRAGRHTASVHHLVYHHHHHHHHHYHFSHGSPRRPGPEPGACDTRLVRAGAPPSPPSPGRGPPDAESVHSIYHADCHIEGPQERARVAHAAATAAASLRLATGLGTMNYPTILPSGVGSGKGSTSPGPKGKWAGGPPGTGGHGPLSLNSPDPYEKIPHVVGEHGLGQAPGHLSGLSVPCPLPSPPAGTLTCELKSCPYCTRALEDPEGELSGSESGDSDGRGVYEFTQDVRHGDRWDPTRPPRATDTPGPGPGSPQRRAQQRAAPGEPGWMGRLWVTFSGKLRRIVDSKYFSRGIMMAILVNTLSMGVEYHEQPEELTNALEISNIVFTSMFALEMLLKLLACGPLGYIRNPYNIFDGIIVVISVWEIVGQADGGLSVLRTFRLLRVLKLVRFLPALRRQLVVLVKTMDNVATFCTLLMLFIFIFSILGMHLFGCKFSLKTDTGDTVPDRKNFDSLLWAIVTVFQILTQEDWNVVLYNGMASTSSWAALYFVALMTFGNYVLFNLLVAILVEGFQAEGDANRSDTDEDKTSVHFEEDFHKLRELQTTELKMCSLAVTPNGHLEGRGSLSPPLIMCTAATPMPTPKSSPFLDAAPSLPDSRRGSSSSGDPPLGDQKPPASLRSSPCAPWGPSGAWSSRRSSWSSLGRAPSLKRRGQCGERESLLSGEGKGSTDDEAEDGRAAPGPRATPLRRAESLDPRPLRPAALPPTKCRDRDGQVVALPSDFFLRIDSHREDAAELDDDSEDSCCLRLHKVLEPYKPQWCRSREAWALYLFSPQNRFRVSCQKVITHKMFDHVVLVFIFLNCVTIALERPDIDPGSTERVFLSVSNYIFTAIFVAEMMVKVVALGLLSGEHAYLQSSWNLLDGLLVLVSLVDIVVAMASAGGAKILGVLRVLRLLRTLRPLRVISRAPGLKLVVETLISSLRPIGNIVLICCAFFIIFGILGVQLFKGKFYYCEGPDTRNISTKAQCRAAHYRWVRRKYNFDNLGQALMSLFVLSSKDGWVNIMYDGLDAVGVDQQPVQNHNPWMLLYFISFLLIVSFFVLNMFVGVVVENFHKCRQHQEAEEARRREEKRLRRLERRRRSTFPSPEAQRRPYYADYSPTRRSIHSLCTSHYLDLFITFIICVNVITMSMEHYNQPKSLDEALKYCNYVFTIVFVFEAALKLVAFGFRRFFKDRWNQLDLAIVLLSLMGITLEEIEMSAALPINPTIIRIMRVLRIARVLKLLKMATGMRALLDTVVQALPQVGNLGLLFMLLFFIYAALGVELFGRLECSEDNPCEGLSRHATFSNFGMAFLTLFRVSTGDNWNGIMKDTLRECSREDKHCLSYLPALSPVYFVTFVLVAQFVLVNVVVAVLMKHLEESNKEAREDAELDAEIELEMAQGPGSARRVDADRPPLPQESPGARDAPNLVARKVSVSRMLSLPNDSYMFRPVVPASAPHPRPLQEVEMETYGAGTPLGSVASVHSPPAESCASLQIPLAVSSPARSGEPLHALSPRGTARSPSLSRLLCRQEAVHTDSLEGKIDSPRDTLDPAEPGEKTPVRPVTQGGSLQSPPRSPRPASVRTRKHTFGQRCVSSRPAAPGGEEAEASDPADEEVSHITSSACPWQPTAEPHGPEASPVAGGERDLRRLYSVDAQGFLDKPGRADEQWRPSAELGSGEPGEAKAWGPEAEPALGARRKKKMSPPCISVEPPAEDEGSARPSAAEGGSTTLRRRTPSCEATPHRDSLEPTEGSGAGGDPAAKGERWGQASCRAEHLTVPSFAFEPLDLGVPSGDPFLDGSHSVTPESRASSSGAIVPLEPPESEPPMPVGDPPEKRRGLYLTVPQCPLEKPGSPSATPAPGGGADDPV
human α1G T-type channels, sequence (O43497 whole entry): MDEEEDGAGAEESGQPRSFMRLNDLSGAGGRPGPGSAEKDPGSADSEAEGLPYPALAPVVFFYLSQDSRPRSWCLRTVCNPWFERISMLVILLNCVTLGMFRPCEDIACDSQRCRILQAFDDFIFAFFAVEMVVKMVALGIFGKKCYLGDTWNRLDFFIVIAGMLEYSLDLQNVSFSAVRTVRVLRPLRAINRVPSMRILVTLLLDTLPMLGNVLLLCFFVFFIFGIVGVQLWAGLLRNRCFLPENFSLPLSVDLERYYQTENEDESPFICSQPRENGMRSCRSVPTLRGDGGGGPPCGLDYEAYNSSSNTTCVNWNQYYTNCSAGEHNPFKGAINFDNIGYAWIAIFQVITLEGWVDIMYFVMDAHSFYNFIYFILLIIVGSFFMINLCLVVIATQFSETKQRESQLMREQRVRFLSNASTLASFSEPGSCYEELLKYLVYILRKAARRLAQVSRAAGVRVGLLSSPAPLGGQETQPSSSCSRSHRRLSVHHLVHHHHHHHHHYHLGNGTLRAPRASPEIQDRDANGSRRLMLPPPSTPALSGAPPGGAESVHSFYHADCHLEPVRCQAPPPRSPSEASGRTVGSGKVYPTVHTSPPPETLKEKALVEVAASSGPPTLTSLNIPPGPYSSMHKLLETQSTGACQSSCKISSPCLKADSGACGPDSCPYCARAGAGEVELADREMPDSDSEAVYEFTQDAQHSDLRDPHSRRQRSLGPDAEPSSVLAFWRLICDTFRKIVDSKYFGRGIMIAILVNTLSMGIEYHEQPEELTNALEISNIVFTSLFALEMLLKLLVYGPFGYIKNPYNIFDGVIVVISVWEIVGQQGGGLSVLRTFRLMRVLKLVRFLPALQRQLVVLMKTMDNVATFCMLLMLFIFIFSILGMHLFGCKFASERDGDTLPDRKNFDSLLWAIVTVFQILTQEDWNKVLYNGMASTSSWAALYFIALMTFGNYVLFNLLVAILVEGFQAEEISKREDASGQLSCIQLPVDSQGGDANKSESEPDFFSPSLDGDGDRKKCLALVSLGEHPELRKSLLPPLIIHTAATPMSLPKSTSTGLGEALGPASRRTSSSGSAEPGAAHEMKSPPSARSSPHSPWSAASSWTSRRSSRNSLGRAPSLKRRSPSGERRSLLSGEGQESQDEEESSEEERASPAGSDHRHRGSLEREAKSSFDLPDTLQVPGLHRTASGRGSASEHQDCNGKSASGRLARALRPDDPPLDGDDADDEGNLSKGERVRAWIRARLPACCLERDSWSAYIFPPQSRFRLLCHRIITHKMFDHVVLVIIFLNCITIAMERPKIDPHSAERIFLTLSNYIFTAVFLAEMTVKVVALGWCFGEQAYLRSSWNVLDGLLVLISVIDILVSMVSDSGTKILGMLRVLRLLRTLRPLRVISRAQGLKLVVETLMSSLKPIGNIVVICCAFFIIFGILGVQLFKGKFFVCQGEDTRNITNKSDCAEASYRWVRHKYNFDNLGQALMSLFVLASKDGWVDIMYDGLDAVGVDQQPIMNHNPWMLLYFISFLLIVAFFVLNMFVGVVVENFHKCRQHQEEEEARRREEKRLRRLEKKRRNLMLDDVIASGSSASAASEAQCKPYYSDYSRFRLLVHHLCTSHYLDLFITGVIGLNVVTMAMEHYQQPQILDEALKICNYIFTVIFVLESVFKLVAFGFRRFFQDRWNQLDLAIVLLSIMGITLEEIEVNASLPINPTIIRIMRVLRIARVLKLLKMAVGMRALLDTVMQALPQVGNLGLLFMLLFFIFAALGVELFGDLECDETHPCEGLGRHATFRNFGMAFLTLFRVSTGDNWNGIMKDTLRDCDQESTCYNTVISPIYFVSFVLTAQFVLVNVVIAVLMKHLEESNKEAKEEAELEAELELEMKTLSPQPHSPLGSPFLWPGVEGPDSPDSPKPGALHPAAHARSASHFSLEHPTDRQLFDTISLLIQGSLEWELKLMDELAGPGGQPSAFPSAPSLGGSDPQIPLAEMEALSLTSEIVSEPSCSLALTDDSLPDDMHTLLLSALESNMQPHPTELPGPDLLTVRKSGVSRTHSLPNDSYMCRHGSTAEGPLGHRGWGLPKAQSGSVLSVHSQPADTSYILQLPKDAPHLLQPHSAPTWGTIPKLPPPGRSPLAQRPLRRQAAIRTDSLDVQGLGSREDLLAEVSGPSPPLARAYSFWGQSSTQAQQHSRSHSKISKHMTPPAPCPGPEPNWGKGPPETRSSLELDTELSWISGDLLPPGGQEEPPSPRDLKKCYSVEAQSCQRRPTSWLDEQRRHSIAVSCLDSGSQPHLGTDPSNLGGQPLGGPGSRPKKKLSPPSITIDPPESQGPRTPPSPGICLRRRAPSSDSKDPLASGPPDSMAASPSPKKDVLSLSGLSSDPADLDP

A word on the IC50: it is the concentration that gives 50% inhibition. For the compound `CS(=O)(=O)c1nc(C(F)(F)F)ccc1C(=O)N[C@H]1CC[C@@](F)(S(=O)(=O)c2cccc(C(F)(F)F)c2)CC1` [Compound 260], the half-inhibitory concentration (IC50) in assay [1] was found to be 3.65 µM; in assay [2] it was 1080 nM; in assay [3] it was 2.3 µM.

With `O=C1c2ccc(C(F)(F)F)nc2CN1[C@H]1CC[C@@](F)(S(=O)(=O)c2cccc(C(F)(F)F)c2)CC1` [Compound 290, 6-((1S,4S)-4-f1uoro-4-(3-(trifluoromethyl)phenylsulfonyl)cyclohexyl)-2-(trifluoromethyl)-6,dihydro-5Hpyrrolo[3,4-b]pyridin-5-one], the IC50 in assay [1] stood at 0.57 µM; in assay [2] it was 420 nM; in assay [3] it was 1.18 µM.

For `O=C(N[C@H]1CC[C@@H](S(=O)(=O)c2cc(F)cc(C(F)(F)F)c2)CC1)c1ccnn1CC(F)(F)F` [Compound 323, N-((1S,4S)-4-(3-fluoro-5-(trifluoromethyl)phenylsulfonyl)cyclohexyl)-1-(2,2,2-trifluoroethyl)-1Hpyrazole-5-carboxamide], the IC50 in assay [1] was 0.72 µM; in assay [2] it was 2410 nM; in assay [3], 1.35 µM.

Consider `CN(C(=O)CN[C@H]1CC[C@H](CS(=O)(=O)c2cccc(C(F)(F)F)c2)CC1)C(C)(C)C` [Compound 115, N-tert-butyl-N-methyl-2-((1R,4R)-4-((3-(trifluoromethyl)phenylsulfonyl)methyl)cyclohexylamino)acetamide], for which the values for the IC50 in assay [1], in assay [2] and in assay [3] were > 10 µM, 650 nM and > 10 µM, respectively.

On to `O=C(NC1CCC(S(=O)(=O)c2cccc(C(F)(F)F)c2)CC1)c1cnc(C(F)(F)F)nc1` (stereo not shown) [Compound 9, 2-(trifluoromethyl)-N-(4-(3-(trifluoromethyl)phenylsulfonyl)cyclohexyl)pyrimidine-5-carboxamide], for which the half-maximal inhibitory concentration (IC50) in assay [1] was found to be 1.03 µM; in assay [2] it was 2520 nM; in assay [3] it was 1.13 µM.

As to `Cc1noc(C)c1S(=O)(=O)NC[C@H]1C[C@H](S(=O)(=O)c2cccc(C(F)(F)F)c2)C1` [Compound 422, 3,5-dimethyl-N-(((1R,3R)-3-(3-(trifluoromethyl)phenylsulfonyl)cyclobutyl)methyl)isoxazole-4-sulfonamide], the values for the half-inhibitory concentration (IC50) in assay [1], in assay [2] and in assay [3] were 1.39 µM, 2670 nM and 2.25 µM, respectively.

Turning to `CC(C)(C)NC(=O)CN[C@H]1CC[C@@](F)(S(=O)(=O)c2cccc(C(F)(F)F)c2)CC1` [Compound 27, N-tert-butyl-2-((1S,4S)-4-fluoro-4-(3-(trifluoromethyl)phenylsulfonyl)cyclohexylamino)acetamide], the figures for the 50% inhibitory concentration (IC50) in assay [1], in assay [2] and in assay [3] were 0.72 µM, 250 nM and 0.76 µM, respectively.

Take `CC1(S(=O)(=O)c2cccc(C(F)(F)F)c2)CCC(NC(=O)CNC2CCCCC2)CC1` (stereo not shown) [Compound 17, 2-(cyclohexylamino)-N-(4-methyl-4-(3-(trifluoromethyl)phenylsulfonyl)cyclohexyl)acetamide]: the IC50 in assay [1] came to 1.42 µM; in assay [2], 260 nM; in assay [3] it was 2.33 µM.

Regarding `COc1ccc(C2(C(=O)N[C@H]3CC[C@@](F)(S(=O)(=O)c4cccc(C(F)(F)F)c4)CC3)CC2)cc1` [Compound 276, N-((1S,4S)-4-fluoro-4-(3-(trifluoromethyl)phenylsulfonyl)cyclohexyl)-1-(4-methoxyphenyl) cyclopropanecarboxamide], the half-inhibitory concentration (IC50) in assay [1] is 2.3 µM; in assay [2], 380 nM; in assay [3], > 10 µM.

Take `CC1(CNC(=O)c2ccc(C(F)(F)F)cc2S(C)(=O)=O)CCC(S(=O)(=O)c2cccc(C(F)(F)F)c2)CC1` (stereo not shown) [Compound 207]: the IC50 was found to be 1.13 µM in assay [1], 260 nM in assay [2] and 1.34 µM in assay [3].

As to `O=C(N[C@H]1CC[C@@](F)(S(=O)(=O)c2cccc(OC(F)(F)F)c2)CC1)c1cc(F)cc(Cl)c1` [Compound 251], the IC50 stood at 0.57 µM in assay [1], 150 nM in assay [2] and 3.59 µM in assay [3].

As for `O=C(NC[C@H]1C[C@H](S(=O)(=O)c2cccc(C(F)(F)F)c2)C1)c1ccc(F)c(C(F)(F)F)c1` [Compound 354, 4-fluoro-3-(trifluoromethyl)-N-(((1R,3R)-3-(3-(trifluoromethyl)phenylsulfonyl)cyclobutyl)methyl)benzamide], the IC50 is 7.06 µM in assay [1], 140 nM in assay [2] and > 10 µM in assay [3].

`CC1(NC(=O)CN[C@H]2C[C@H](CS(=O)(=O)c3cccc(C(F)(F)F)c3)C2)CCC1` [Compound 351, N-(1-methylcyclobutyl)-2-((1R,3R)-3-((3-(trifluoromethyl)phenylsulfonyl)methyl)cyclobutylamino)acetamide]: the IC50 in assay [1] is 7.43 µM; in assay [2] it was 2770 nM; in assay [3], > 10 µM.

For the compound `CS(=O)(=O)c1cc(C(F)(F)F)ccc1C(=O)N[C@H]1CC[C@@](F)(S(=O)(=O)c2cc(F)cc(C(F)(F)F)c2)CC1` [Compound 330, N-((1S,4S)-4-fluoro-4-(3-fluoro-5-(trifluoromethyl)phenylsulfonyl)cyclohexyl)-2-(methylsulfonyl)-4-(trifluoromethyl)benzamide], the concentration for half-maximal inhibition (IC50) in assay [1] was determined as 0.93 µM; in assay [2], 1020 nM; in assay [3], 8.56 µM.

With `CC(C)(C)NC(=O)CNC1CCC(S(=O)(=O)c2cccc(C(F)(F)F)c2)CC1` (stereo not shown) [Compound 16, N-tert-butyl-2-(4-(3-(trifluoromethyl)phenylsulfonyl)cyclohexylamino)acetamide], the half-inhibitory concentration (IC50) in assay [1] was 9.18 µM; in assay [2] it was 140 nM; in assay [3], > 10 µM.

As for `O=C(N[C@H]1CC[C@](F)(S(=O)(=O)c2cccc(OC(F)(F)F)c2)CC1)c1ccc(F)c(Cl)c1` [Compound 250, 3-chloro-4-fluoro-N-((1R,4R)-4-fluoro-4-(3-(trifluoromethoxy)phenylsulfonyl)cyclohexyl)benzamide], the results for the half-maximal inhibitory concentration (IC50) in assay [1], in assay [2] and in assay [3] were 0.99 µM, 800 nM and 4.28 µM, respectively.

Turning to `O=C(N[C@H]1C[C@H](CS(=O)(=O)c2cccc(C(F)(F)F)c2)C1)c1ccc(C(F)(F)F)nc1` [Compound 346, 6-(trifluoromethyl)-N-((1R,3R)-3-((3-(trifluoromethyl)phenylsulfonyl)methyl)cyclobutyl)nicotinamide], the values for the IC50 in assay [1], in assay [2] and in assay [3] were 0.41 µM, 5540 nM and 1.26 µM, respectively.

`CC(C)(C)NC(=O)CN[C@H]1CC[C@H](CS(=O)(=O)c2cccc(C(F)(F)F)c2)CC1` [Compound 114, N-tert-butyl-2-((1R,4R)-4-((3-(trifluoromethyl)phenylsulfonyl)methyl)cyclohexylamino)acetamide]: the IC50 was > 10 µM in assay [1], 510 nM in assay [2] and > 10 µM in assay [3].

Regarding `O=C(N[C@H]1CC[C@@](F)(S(=O)(=O)c2cccc(C(F)(F)F)c2)CC1)c1ccnc(C(F)(F)F)n1` [Compound 268, N-((1S,4S)-4-fluoro-4-(3-(trifluoromethyl)phenylsulfonyl)cyclohexyl)-2-(trifluoromethyl)pyrimidine-4-carboxamide], the IC50 is 1.91 µM in assay [1], 30 nM in assay [2] and > 10 µM in assay [3].

As to `Cn1nc(C(F)(F)F)cc1C(=O)NCC1(C)CCC(S(=O)(=O)c2cccc(C(F)(F)F)c2)CC1` (stereo not shown) [Compound 206, 1-methyl-N-((1-methyl-4-(3-(trifluoromethyl)phenylsulfonyl)cyclohexyl)methyl)-3-(trifluoromethyl)-1H-pyrazole-5-carboxamide], the values for the IC50 in assay [1], in assay [2] and in assay [3] were 2.55 µM, 420 nM and 3.52 µM, respectively.

In the case of `CC1(NC(=O)CN[C@H]2CC[C@@](F)(S(=O)(=O)c3cccc(C(F)(F)F)c3)CC2)CCC1` [Compound 89, 2-((1S,4S)-4-fluoro-4-(3-(trifluoromethyl)phenylsulfonyl)cyclohexylamino)-N-(1-methylcyclobutyl)acetamide], the concentration for half-maximal inhibition (IC50) in assay [1] is 0.99 µM; in assay [2] it was 120 nM; in assay [3] it was 1.71 µM.

As for `O=C(CN[C@H]1CC[C@@H](S(=O)(=O)c2cccc(C(F)(F)F)c2)CC1)Nc1ccccn1` [Compound 57, N-(pyridin-2-yl)-2-((1S,4S)-4-(3-(trifluoromethyl)phenylsulfonyl)cyclohexylamino)acetamide], the 50% inhibitory concentration (IC50) in assay [1] is 1.53 µM; in assay [2] it was 860 nM; in assay [3], 4.94 µM.

Regarding `CN(C(=O)c1ccc(F)c(Cl)c1)[C@H]1CC[C@@](F)(S(=O)(=O)c2cc(F)cc(C(F)(F)F)c2)CC1` [Compound 335, 3-chloro-4-fluoro-N-((1S,4S)-4-fluoro-4-(3-fluoro-5-(trifluoromethyl)phenylsulfonyl)cyclohexyl)-N-methylbenzamide], the IC50 in assay [1] was 4.71 µM; in assay [2], 520 nM; in assay [3], > 10 µM.

Consider `COc1cc(C(=O)N(C)CCC(C)(C)S(=O)(=O)c2cccc(C(F)(F)F)c2)cc(Cl)n1` [Compound 512, 2-chloro-6-methoxy-N-methyl-N-(3-methyl-3-(3-(trifluoromethyl)phenylsulfonyl)butyl) isonicotinamide], for which the IC50 in assay [1] is > 10 µM; in assay [3], 0.33 µM.

For the compound `Cn1nc(C(F)(F)F)cc1C(=O)NCCC(C)(C)S(=O)(=O)c1cccc(C(F)(F)F)c1` [Compound 467, 1-methyl-N-(3-methyl-3-(3-(trifluoromethyl)phenylsulfonyl)butyl)-3-(trifluoromethyl)-1H-pyrazole-5-carboxamide], the half-maximal inhibitory concentration (IC50) worked out at 1.17 µM in assay [1] and 0.17 µM in assay [3].

For the origin of these results see US20120245137A1 (Zalicus Pharmaceuticals Ltd., priority 2009, published 2012).
